In patent publication US10670605B2, “Cysteine reactive probes and uses thereof” (The Scripps Research Institute, priority 2015, dated 2020):

Tests used:
Assay in all cases: Competitive isoTOP-ABPP, cell lysates
Type in all cases: binding
SMARCC2 C145 (Q8TAQ2) = SMARCC2 C145 (Q8TAQ2) (Homo sapiens, UniProt Q8TAQ2); details: for isoTOP-ABPP reactivity ratio, Q8TAQ2_C145: 500 μm
CASP8 C360 (Q14790) = CASP8 C360 (Q14790) (Homo sapiens, UniProt Q14790); details: for isoTOP-ABPP ratio Q14790_C360: 500 μM, invitro; for isoTOP-ABPP reactivity ratio, Q14790_C360: 500 μm
CASP8 C360 (Q14790), sequence (Q14790 whole entry): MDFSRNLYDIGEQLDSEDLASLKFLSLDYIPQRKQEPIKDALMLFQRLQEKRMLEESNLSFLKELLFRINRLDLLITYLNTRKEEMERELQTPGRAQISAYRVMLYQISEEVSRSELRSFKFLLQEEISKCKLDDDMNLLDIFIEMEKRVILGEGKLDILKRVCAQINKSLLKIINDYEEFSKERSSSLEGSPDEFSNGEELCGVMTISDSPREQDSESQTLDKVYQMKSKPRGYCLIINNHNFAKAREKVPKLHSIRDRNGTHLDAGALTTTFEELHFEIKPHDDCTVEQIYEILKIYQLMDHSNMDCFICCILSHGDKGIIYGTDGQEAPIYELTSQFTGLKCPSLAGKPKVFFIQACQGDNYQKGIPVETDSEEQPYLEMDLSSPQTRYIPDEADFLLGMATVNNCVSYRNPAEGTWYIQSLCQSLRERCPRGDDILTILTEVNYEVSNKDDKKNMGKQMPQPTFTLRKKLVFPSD

IRF4 C194 (Q15306) = molecular target: T1, IRF4 C194 (Q15306) (Homo sapiens, UniProt Q15306)
T1 sequence (Q15306 1-451): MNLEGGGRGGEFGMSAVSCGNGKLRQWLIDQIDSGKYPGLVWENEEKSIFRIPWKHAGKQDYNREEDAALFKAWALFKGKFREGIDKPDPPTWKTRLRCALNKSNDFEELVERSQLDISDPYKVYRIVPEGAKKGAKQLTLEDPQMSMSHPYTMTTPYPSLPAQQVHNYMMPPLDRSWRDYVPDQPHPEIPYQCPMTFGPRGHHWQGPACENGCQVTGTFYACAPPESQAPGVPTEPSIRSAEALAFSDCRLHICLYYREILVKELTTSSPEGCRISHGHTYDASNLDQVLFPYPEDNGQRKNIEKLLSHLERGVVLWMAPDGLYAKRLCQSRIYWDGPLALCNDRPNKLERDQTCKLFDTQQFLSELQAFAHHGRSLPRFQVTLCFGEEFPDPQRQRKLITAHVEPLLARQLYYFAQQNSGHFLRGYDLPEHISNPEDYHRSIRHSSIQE

USP22 C171 (Q9UPT9) = molecular target: T2, USP22 C171 (Q9UPT9) (Homo sapiens, UniProt Q9UPT9)
T2 sequence (Q9UPT9 1-525): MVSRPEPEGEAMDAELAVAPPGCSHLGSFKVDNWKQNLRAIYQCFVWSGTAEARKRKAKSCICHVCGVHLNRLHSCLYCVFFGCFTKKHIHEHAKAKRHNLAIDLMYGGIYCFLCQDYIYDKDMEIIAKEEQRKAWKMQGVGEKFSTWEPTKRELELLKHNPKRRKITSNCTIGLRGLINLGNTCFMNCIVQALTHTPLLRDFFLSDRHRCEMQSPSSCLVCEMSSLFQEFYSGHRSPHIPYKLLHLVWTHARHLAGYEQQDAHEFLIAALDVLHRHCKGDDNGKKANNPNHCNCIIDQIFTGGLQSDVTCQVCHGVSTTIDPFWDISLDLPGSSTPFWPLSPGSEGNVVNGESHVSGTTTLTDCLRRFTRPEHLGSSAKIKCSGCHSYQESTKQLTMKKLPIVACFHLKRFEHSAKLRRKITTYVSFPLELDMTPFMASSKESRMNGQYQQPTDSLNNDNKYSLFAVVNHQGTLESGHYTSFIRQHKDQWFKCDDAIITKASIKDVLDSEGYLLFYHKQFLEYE

ACAT1 C126 (P24752) = molecular target: T3, ACAT1 C126 (P24752) (Homo sapiens, UniProt P24752); details: for isoTOP-ABPP ratio, P24752_C126: 500 μM, invitro; for isoTOP-ABPP reactivity ratio, P24752_C126: 500 μm
T3 sequence (P24752 34-427): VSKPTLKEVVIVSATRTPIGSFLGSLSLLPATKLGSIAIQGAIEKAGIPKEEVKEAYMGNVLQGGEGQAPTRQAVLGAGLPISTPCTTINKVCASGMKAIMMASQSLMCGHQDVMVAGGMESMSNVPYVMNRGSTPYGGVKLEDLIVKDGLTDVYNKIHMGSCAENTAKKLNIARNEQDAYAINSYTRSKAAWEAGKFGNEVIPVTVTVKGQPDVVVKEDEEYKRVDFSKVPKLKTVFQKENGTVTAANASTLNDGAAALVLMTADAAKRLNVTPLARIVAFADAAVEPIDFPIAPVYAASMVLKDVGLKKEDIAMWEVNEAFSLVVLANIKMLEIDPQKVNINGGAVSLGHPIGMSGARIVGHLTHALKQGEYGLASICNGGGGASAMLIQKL

ACAT1 C413 (P24752) = molecular target: T4, ACAT1 C413 (P24752) (Homo sapiens, UniProt P24752); details: for isoTOP-ABPP reactivity ratio, P24752_C413: 500 μm
T4 sequence (P24752 34-427): T3 sequence (P24752 34-427)

ACAT1 C119 (P24752) = molecular target: T5, ACAT1 C119 (P24752) (Homo sapiens, UniProt P24752); details: for isoTOP-ABPP ratio P24752_C119: 500 μM, invitro; for isoTOP-ABPP reactivity ratio, P24752_C119: 500 μm
T5 sequence (P24752 34-427): T3 sequence (P24752 34-427)

ACAT1 C196 (P24752) = molecular target: T6, ACAT1 C196 (P24752) (Homo sapiens, UniProt P24752); details: for isoTOP-ABPP ratio, P24752_C196: 500 μM, invitro; for isoTOP-ABPP reactivity ratio, P24752_C196: 500 μm
T6 sequence (P24752 34-427): T3 sequence (P24752 34-427)

SMARCC2 C145 (Q8TAQ2), sequence (Q8TAQ2 whole entry): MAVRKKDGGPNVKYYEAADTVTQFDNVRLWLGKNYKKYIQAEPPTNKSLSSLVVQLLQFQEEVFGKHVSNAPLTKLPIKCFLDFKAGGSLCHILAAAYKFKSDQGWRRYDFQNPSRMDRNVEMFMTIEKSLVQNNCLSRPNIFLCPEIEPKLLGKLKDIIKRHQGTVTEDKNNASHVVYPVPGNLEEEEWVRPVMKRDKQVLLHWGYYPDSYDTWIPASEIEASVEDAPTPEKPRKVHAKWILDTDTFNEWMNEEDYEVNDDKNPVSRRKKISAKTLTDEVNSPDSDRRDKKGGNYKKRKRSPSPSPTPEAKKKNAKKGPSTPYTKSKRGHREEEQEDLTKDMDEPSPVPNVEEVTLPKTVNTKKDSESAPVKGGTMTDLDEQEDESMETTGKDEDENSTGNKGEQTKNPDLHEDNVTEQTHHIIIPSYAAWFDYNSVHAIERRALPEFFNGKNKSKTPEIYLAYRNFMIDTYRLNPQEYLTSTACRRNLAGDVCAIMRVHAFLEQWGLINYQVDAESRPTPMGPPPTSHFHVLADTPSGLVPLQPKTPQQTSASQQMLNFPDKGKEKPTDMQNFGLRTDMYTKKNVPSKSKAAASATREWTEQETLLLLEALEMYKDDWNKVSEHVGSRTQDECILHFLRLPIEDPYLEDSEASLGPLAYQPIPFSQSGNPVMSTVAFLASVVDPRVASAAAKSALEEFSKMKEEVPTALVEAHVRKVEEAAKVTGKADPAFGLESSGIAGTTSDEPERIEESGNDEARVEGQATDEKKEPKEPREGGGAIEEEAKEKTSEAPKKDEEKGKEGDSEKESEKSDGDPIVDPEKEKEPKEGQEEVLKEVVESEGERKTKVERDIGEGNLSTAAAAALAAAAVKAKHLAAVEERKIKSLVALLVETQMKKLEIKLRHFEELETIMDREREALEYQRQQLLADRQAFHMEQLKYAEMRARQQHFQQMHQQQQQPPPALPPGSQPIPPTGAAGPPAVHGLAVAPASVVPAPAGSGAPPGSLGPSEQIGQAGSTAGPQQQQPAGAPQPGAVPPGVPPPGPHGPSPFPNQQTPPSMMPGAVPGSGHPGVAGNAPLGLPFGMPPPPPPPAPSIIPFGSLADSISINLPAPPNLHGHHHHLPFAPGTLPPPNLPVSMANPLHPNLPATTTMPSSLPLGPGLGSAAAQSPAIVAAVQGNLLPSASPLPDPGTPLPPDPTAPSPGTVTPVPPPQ

SMILES: CC(Br)C(=O)Nc1cc(C(F)(F)F)cc(C(F)(F)F)c1 (stereo not shown) [compound 24]
- isoTOP-ABPP ratio (reactivity profile), Q8TAQ2_C145 (SMARCC2 C145 (Q8TAQ2); 500 μm in-vitro ramos): 5.4
- isoTOP-ABPP ratio (reactivity profile), Q14790_C360 (CASP8 C360 (Q14790); 500 μm in-vitro ramos): 1.4
- isoTOP-ABPP ratio (reactivity profile), Q15306_C194 (IRF4 C194 (Q15306); 500 μm in-vitro ramos): 1.9
- isoTOP-ABPP ratio (reactivity profile), Q9UPT9_C171 (USP22 C171 (Q9UPT9); 500 μm in-vitro ramos): 3.1
- isoTOP-ABPP ratio (reactivity profile), P24752_C126 (ACAT1 C126 (P24752); 500 μm in-vitro ramos): 1.1
- isoTOP-ABPP ratio (reactivity profile), P24752_C413 (ACAT1 C413 (P24752); 500 μm in-vitro ramos): 1.2
- isoTOP-ABPP ratio (reactivity profile), P24752_C119 (ACAT1 C119 (P24752); 500 μm in-vitro ramos): 1.3
- isoTOP-ABPP ratio (reactivity profile), P24752_C196 (ACAT1 C196 (P24752); 500 μm in-vitro ramos): 1.1

SMILES: C=CC(=O)N(c1ccccc1)c1ccc(Br)cc1 [compound 5]
- isoTOP-ABPP ratio Q8TAQ2_C145 (SMARCC2 C145 (Q8TAQ2); 500 μM, invitro, ramos): 2.8
- isoTOP-ABPP ratio Q14790_C360 (CASP8 C360 (Q14790); 231): 1.0
- isoTOP-ABPP ratio Q14790_C360 (CASP8 C360 (Q14790); ramos): 1.3
- isoTOP-ABPP ratio, Q15306_C194 (IRF4 C194 (Q15306); 500 μM, invitro, ramos): 2.2
- isoTOP-ABPP ratio, Q9UPT9_C171 (USP22 C171 (Q9UPT9); 500 μM, invitro, ramos): 20.0
- isoTOP-ABPP ratio, P24752_C126 (ACAT1 C126 (P24752); 231): 0.9
- isoTOP-ABPP ratio, P24752_C126 (ACAT1 C126 (P24752); ramos): 1.3
- isoTOP-ABPP ratio P24752_C413 (ACAT1 C413 (P24752); 500 μM, invitro, 231): 1.3
- isoTOP-ABPP ratio P24752_C119 (ACAT1 C119 (P24752); 231): 1.8
- isoTOP-ABPP ratio P24752_C119 (ACAT1 C119 (P24752); ramos): 2.4
- isoTOP-ABPP ratio, P24752_C196 (ACAT1 C196 (P24752); 231): 1.5
- isoTOP-ABPP ratio, P24752_C196 (ACAT1 C196 (P24752); ramos): 2.2

SMILES: C=CC(=O)Nc1cc(F)c(N2CCN(C(=O)OC(C)(C)C)CC2)c(F)c1 [compound 38]
- isoTOP-ABPP reactivity ratio, Q8TAQ2_C145 (SMARCC2 C145 (Q8TAQ2); in-vitro_ramos): 1.9
- isoTOP-ABPP reactivity ratio, Q8TAQ2_C145 (SMARCC2 C145 (Q8TAQ2); in-vitro_ramos_231): 1.1
- isoTOP-ABPP reactivity ratio, Q14790_C360 (CASP8 C360 (Q14790); in-vitro_ramos): 4.1
- isoTOP-ABPP reactivity ratio, Q14790_C360 (CASP8 C360 (Q14790); in-vitro_ramos_231): 1.0
- isoTOP-ABPP reactivity ratio, Q15306_C194 (IRF4 C194 (Q15306); 500 μm, in-vitro_ramos): 2.1
- isoTOP-ABPP reactivity ratio, Q9UPT9_C171 (USP22 C171 (Q9UPT9); 500 μm, in-vitro_ramos_231): 1.4
- isoTOP-ABPP reactivity ratio, P24752_C126 (ACAT1 C126 (P24752); in-vitro_ramos): 1.4
- isoTOP-ABPP reactivity ratio, P24752_C126 (ACAT1 C126 (P24752); in-vitro_ramos_231): 1.0
- isoTOP-ABPP reactivity ratio, P24752_C413 (ACAT1 C413 (P24752); in-vitro_ramos): 20.0
- isoTOP-ABPP reactivity ratio, P24752_C413 (ACAT1 C413 (P24752); in-vitro_ramos_231): 1.1
- isoTOP-ABPP reactivity ratio, P24752_C119 (ACAT1 C119 (P24752); in-vitro_ramos): 1.7
- isoTOP-ABPP reactivity ratio, P24752_C119 (ACAT1 C119 (P24752); in-vitro_ramos_231): 1.0
- isoTOP-ABPP reactivity ratio, P24752_C196 (ACAT1 C196 (P24752); in-vitro_ramos): 1.3
- isoTOP-ABPP reactivity ratio, P24752_C196 (ACAT1 C196 (P24752); in-vitro_ramos_231): 1.0
